Series [1] in a line: Metabolic stability in Sprague-Dawley rat liver microsomes assessed as half life at […] incubated for 60 mins. Type of series: ADME, Microsome.
The nature of series [2]: Tmax in Swiss CD1 mouse at 1 mg/kg, ip measured upto 7 hrs by LC-MS analysis. Type of series: ADME, organism-based. As to conditions: in vivo.
Series [3] can be described thus: AUC (0 to 4 hrs) in Swiss CD1 mouse at 10 mg/kg, ip measured upto 4 hrs by LC-MS analysis. Type of series: ADME, organism-based. Details: time < 4 hr, dose 10 mg/kg, route intraperitoneal. Particulars: in vivo.
Series [4] is described as follows: Plasma concentration in Swiss CD1 mouse at 1 mg/kg, ip measured upto 3 hrs by LC-MS analysis. Type of series: ADME, organism-based.
A short description of series [5]: Solubility of compound in PBS buffer pH 7.4 with 1% DMSO measured after 1 and 24 hrs. Particulars: PBS buffer with 1% DMSO. Type of series: physicochemical.
The target of series [6] is T1, Nuclear receptor subfamily 1 group I member 3 (Homo sapiens, UniProt Q14994).
T1 sequence (Q14994 whole entry): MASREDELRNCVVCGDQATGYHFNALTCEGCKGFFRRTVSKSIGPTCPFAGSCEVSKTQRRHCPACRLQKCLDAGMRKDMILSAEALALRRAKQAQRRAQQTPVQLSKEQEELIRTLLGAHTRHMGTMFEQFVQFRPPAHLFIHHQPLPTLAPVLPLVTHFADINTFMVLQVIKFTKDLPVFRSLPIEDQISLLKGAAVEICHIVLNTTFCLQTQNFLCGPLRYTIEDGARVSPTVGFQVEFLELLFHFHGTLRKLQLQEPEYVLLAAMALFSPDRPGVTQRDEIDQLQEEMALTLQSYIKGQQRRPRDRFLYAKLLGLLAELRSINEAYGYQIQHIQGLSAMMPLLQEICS
In words: Antagonist activity at recombinant human pFA-CMV fused CAR LBD transfected in HEK293T cells assessed as reduction in CITCO-induced CAR activation at 1 uM incubated for 12 to 14 hrs by dual glo luciferase reporter gene assay. Type of series: cell-based.

The target in series [7] is T2, Retinoic acid receptor RXR-alpha (Homo sapiens) (UniProt P19793).
T2 sequence (whole entry): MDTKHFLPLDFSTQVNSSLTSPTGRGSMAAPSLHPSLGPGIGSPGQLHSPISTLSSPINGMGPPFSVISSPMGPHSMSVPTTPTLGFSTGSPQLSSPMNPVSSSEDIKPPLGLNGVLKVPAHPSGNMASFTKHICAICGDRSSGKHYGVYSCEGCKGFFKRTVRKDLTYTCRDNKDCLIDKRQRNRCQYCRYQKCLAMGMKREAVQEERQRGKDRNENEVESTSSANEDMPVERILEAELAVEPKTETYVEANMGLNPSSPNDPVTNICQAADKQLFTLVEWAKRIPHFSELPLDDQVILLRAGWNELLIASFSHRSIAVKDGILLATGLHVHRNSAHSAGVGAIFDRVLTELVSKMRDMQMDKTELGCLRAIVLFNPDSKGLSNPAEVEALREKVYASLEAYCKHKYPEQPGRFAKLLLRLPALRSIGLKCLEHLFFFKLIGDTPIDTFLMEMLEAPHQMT
The series can be described thus: Agonist activity at recombinant human pFA-CMV fused RXRalpha LBD transfected in HEK293T cells assessed as RXRalpha activation at 1 uM incubated for 12 to 14 hrs by dual glo luciferase reporter gene assay. Type of series: cell-based.

Series [8] concerns the target T3, Peroxisome proliferator-activated receptor alpha (Homo sapiens) (UniProt Q07869).
T3 sequence (whole entry): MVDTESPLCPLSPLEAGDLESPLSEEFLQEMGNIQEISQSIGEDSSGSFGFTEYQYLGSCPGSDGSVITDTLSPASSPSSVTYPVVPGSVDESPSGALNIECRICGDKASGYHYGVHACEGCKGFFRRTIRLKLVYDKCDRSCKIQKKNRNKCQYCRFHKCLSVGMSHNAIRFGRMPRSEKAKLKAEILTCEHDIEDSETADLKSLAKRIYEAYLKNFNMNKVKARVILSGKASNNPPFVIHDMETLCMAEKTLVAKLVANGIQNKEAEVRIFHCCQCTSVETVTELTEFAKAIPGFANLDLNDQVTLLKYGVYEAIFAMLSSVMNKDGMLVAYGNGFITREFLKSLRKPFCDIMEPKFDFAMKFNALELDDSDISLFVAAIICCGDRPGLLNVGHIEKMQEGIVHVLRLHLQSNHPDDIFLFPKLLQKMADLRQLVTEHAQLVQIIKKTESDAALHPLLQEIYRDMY
In words: Agonist activity at recombinant human pFA-CMV fused PPARalpha LBD transfected in HEK293T cells assessed as PPARalpha activation at 1 uM incubated for 12 to 14 hrs by dual glo luciferase reporter gene assay. Type of series: cell-based.

The target in series [9] is T3, Peroxisome proliferator-activated receptor alpha (Homo sapiens). In words: Antagonist activity at recombinant human pFA-CMV fused PPARalpha LBD transfected in HEK293T cells assessed as reduction in GW7647-induced PPARalpha activation at 1 uM incubated for 12 to 14 hrs by dual glo luciferase reporter gene assay. Type of series: cell-based.
The target in series [10] is T4, Retinoic acid receptor alpha (Homo sapiens) (UniProt P10276).
T4 sequence (whole entry): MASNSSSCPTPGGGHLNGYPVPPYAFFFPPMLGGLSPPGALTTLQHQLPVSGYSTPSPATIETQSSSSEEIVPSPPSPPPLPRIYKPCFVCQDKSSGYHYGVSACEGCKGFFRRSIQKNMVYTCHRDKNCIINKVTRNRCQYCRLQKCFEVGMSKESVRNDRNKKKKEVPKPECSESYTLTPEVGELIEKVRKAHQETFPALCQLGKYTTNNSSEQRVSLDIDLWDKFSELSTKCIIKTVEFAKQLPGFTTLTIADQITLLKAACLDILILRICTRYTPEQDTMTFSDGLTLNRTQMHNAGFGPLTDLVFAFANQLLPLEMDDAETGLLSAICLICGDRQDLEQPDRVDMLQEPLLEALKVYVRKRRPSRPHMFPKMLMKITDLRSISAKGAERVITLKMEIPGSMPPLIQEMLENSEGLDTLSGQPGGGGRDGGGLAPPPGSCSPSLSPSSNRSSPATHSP
In words: Agonist activity at recombinant human pFA-CMV fused RARalpha LBD transfected in HEK293T cells assessed as RARalpha activation at 1 uM incubated for 12 to 14 hrs by dual glo luciferase reporter gene assay. Type of series: cell-based.

Series [11] addresses T1, Nuclear receptor subfamily 1 group I member 3. In words: Agonist activity at recombinant human pFA-CMV fused CAR LBD transfected in HEK293T cells assessed as CAR activation at 1 uM incubated for 12 to 14 hrs by dual glo luciferase reporter gene assay. Type of series: cell-based.

We go through two compounds from ChEMBL document CHEMBL4364346, “Structure optimization of a new class of PPARγ antagonists” (Bioorg Med Chem, 2019).

Values after ≈ are worked out from the molar mass of the structure shown. Active and inactive are the calls of the source. No cut-off for these calls is given here. A value given as a limit tells only on which side of the number the result lay.

With `CCC/C(=C\c1cc(OCc2ccc3nc(C(F)(F)F)cc(OC)c3c2)ccc1OCCN1CCN(C)CC1)C(=O)O`, the half-life in series [1] is above 1 h. In series [2], the Tmax is 1 h. The compound further registered an area under the curve AUC(0-t) at 4 h in series [3] of 0.598 µg·h/mL. For the same compound, the concentration at 3 h in series [4] was 0.0095 µM. Also, the solubility at 24 h in series [5] lay in the range of 200 to 250 µM (≈ 118 to 147 µg/mL). Besides, the Activity result in [6] and in series [11] was “Not Active” in each case. Moreover, the outcome in [7], in [8], in series [9] and in [10] was inactive.
As for `CCC/C(=C\c1cc(OCc2ccc3nc(C(F)(F)F)cc(OC)c3c2)ccc1OCC1CCN(C)CC1)C(=O)O`, the half-life in series [1] is above 1 h. Moreover, the Tmax in series [2] was 1 h. The compound further returned an AUC(0-t) at 4 h in series [3] of 0.65 µg·h/mL. This compound also showed a concentration at 3 h in series [4] of 0.014 µM. This compound returned a solubility at 24 h in [5] of 125 to 150 µM (≈ 71.6 to 85.9 µg/mL). Moreover, the Activity entry in series [6] was “Not Active”; in [11], “Active”. The result in [7], in series [8], in series [9] and in series [10] was inactive.
